# Measured values taken from US10208066B2, “Imidazopyridazine compounds and their use” (HUTCHISON MEDIPHARMA LIMITED, priority 2014, dated 2019).
# pIC50: −log10 of the molar value. Like-named read-outs stand apart in the source and are kept apart here.
# Columns and labels:
# Experiment in all cases: Transcreener KINASE Assay, fluorescent determination of PI3K enzyme activity;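 as to PI3K-β IH % (inhibition rate): recombinant PI3K enzyme reaction, 80 min at room temperature, ADP formed detected by far-red competitive fluorescence polarization immunoassay, inhibition relative to ADP in 2% DMSO control wells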;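 as to PI3K-γ IH % (inhibition rate): ADP produced by p110γ kinase reaction, 80 min at room temperature, detected by far-red fluorescence polarization immunoassay, inhibition relative to 2% DMSO control wells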;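 as to PI3K-δ IH % (inhibition rate): ADP formed by the kinase detected via far-red competitive fluorescence polarization immunoassay after 80 min room-temperature reaction, inhibition relative to 2% DMSO wells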
# Type in all cases: biochemical
# [1] = molecular target: PI3K-γ (p110γ) (Homo sapiens (Human), UniProt P48736); details: for inhibition at 1 µM: read-out: PI3K-γ IH % (inhibition rate);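 as to all read-outs here: ADP produced by p110γ kinase reaction, 80 min at room temperature, detected by far-red fluorescence polarization immunoassay, inhibition relative to 2% DMSO control wells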
# Sequence of PI3K-γ (p110γ) (P48736 whole entry, species assumed): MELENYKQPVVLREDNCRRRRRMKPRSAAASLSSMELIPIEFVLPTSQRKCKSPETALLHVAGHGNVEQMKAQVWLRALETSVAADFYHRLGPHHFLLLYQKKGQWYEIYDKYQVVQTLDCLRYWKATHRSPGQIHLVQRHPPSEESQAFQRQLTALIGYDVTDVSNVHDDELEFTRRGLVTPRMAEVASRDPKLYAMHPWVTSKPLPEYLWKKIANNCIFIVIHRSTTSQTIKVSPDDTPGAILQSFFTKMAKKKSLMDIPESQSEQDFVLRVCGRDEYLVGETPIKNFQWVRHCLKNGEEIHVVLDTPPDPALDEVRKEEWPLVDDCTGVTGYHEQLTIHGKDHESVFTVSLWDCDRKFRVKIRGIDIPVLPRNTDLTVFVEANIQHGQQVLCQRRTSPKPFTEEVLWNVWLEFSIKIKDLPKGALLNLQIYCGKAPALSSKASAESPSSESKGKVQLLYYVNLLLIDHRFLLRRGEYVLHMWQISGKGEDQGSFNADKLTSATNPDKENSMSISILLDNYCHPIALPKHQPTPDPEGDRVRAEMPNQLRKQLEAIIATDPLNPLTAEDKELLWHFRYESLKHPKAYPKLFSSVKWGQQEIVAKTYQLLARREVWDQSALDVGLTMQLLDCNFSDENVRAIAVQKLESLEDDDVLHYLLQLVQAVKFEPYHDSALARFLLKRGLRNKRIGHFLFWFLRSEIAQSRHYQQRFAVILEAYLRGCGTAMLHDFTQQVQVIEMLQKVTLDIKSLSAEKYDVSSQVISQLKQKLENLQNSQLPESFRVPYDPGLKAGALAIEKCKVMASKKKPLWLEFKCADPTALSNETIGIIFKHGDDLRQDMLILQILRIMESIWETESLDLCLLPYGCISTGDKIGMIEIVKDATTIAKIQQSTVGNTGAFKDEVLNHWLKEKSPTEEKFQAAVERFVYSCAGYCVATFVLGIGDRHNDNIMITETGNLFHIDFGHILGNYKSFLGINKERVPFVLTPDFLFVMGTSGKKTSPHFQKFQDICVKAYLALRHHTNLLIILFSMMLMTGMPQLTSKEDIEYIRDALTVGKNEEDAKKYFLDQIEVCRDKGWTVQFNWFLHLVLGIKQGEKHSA
# Experimental: (§1) It is a universal, homogenous, high throughput screening (HTS) technology using a far-red, competitive fluorescence polarization immunoassay based on the detection of ADP to monitor the activity of enzymes that catalyze group transfer reactions. […] The reaction mixture was added into desired wells of a 96-well plate. The plate was sealed and incubated for 80 min at room temperature. • 2) Next, 25 uL ADP detection mix was added into each well. The plate was sealed again and incubated for 60 min at room temperature. Then fluorescence polarization was measured by Tecan Infinite F500 Reader.
# (§2) Data was analyzed and IC50 values were generated using the add-in software for Microsoft Excel, Xlfit™ (version 5.3).
# (§3) Inhibition rates were calculated as follow: IH %=(ADP amount under 2% DMSO well−ADP amount under test compound well)/ADP amount under 2% DMSO well×100%.
# [2] = molecular target: PI3K-δ (p110δ/p85α) (Homo sapiens (Human), UniProt O00329); details: for inhibition at 1 µM: read-out: PI3K-δ IH % (inhibition rate);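 as to all read-outs here: ADP formed by the kinase detected via far-red competitive fluorescence polarization immunoassay after 80 min room-temperature reaction, inhibition relative to 2% DMSO wells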
# Sequence of PI3K-δ (p110δ/p85α) (O00329 whole entry, species assumed): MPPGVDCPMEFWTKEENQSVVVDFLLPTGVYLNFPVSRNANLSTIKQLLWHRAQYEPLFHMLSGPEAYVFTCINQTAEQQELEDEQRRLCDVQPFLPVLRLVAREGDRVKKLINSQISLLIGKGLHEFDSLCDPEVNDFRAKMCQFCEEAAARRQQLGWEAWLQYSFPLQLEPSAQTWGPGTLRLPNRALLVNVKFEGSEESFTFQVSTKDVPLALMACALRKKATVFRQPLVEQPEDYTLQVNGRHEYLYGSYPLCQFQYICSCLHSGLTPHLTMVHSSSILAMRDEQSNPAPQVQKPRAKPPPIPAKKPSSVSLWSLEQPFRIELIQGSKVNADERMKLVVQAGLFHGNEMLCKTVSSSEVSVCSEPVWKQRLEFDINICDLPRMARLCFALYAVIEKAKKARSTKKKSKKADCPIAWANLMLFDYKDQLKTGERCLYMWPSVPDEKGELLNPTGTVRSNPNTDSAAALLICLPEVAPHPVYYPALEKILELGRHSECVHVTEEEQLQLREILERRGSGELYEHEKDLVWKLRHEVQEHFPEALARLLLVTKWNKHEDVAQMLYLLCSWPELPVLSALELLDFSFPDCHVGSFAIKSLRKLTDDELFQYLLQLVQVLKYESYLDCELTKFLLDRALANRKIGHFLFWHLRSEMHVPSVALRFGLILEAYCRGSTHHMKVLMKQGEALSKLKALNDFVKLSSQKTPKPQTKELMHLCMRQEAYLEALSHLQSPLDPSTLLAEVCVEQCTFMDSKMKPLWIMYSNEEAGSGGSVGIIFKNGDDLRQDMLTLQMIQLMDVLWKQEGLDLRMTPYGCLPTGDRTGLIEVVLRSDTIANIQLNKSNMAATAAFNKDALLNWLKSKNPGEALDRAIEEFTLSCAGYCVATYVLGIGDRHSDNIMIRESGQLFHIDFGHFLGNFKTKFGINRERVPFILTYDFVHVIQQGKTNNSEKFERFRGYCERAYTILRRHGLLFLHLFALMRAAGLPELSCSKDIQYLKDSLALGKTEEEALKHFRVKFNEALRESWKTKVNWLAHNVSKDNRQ
# Sequence of PI3K-δ (p110δ/p85α) (P27986 whole entry partner, species assumed): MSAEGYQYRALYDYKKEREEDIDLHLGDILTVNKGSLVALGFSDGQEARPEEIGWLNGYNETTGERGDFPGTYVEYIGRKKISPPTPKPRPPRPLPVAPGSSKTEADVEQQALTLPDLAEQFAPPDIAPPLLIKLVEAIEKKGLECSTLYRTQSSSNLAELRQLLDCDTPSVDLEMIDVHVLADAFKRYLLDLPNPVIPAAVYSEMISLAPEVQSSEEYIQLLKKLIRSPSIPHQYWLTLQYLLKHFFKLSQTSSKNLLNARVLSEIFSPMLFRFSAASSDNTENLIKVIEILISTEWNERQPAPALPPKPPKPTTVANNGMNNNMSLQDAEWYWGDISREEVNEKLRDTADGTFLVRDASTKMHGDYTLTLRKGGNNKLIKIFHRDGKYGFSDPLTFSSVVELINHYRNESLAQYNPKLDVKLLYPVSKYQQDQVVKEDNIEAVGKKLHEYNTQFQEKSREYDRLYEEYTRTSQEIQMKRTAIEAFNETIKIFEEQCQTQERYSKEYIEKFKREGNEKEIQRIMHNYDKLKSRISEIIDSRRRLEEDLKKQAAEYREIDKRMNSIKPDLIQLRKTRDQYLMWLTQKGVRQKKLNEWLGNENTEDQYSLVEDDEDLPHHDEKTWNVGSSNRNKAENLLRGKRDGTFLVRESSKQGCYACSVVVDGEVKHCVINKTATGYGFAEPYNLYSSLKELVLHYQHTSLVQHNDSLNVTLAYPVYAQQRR
# Experimental: as §1, §2, §3
# [3] = molecular target: PI3K-β (Homo sapiens, UniProt P42338); details: for inhibition at 1 µM: read-out: PI3K-β IH % (inhibition rate); for inhibition at 1 µM / PI3K-β IH % (inhibition rate): at 1 μM;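 as to all read-outs here: recombinant PI3K enzyme reaction, 80 min at room temperature, ADP formed detected by far-red competitive fluorescence polarization immunoassay, inhibition relative to ADP in 2% DMSO control wells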
# Sequence of PI3K-β (P42338 whole entry, looked up): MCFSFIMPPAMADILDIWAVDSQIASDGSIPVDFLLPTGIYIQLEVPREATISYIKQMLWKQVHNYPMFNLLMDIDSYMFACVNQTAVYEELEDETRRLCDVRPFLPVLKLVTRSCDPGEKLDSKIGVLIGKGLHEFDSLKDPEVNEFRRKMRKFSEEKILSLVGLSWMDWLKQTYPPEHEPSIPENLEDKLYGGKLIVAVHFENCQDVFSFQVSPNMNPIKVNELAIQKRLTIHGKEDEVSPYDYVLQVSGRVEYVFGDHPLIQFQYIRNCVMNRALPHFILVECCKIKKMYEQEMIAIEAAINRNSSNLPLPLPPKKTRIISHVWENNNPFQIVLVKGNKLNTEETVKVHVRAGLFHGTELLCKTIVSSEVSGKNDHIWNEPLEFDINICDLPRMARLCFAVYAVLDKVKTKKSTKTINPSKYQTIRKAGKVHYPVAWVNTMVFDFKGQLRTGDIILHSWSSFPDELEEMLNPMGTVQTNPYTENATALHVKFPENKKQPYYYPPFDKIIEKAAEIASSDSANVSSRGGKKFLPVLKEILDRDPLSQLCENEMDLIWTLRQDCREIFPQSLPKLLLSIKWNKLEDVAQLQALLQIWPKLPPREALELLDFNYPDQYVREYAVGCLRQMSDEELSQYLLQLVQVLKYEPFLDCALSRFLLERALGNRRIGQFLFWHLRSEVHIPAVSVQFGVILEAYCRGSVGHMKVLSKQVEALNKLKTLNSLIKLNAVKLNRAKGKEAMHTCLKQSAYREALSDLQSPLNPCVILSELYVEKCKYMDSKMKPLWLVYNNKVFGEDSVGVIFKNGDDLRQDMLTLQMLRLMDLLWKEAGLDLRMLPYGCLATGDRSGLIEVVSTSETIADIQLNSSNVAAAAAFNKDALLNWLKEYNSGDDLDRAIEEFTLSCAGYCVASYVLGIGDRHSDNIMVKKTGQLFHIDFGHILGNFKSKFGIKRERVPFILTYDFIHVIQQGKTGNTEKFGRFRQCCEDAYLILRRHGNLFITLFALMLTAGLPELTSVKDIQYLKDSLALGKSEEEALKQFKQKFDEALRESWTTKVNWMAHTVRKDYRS
# Experimental: as §1, §2, §3
Structure (SMILES),inhibition at 1 µM ([1]; at 1 μM) [%],pIC50 [2],inhibition at 1 µM [3] [%],other results
"C[C@@H](c1cc2ncc(Cl)n2nc1-c1ccccc1)N(C)c1ncnc(N)c1C#N [Compound 42, (S)-4-amino-6-((1-(3-chloro-6-phenylimidazo[1,2-b]pyridazin-7-yl)ethyl)(methyl)amino)pyrimidine-5-carbonitrile]",18.2,6.47,7.4,
"C[C@@H](Nc1ncnc(N)c1C#N)c1cc2ncc(Cl)n2nc1-c1ccccc1 [Compound 3, (R)-4-amino-6-((1-(3-chloro-6-phenylimidazo[1,2-b]pyridazin-7-yl)ethyl)amino)pyrimidine-5-carbonitrile]",6.9,,,
"C[C@H](Nc1ncnc(N)c1C#N)c1cc2ncc(Cl)n2nc1-c1ccccc1O [Compound 69, (S)-4-amino-6-((1-(3-chloro-6-(2-hydroxyphenyl)imidazo[1,2-b]pyridazin-7-yl)ethyl)amino)pyrimidine-5-carbonitrile]",,9.00,,
C[C@H](Nc1ncnc(N)c1C#N)c1cc2ncc(Cl)n2nc1-c1ccc2ccccc2c1 [Compound 71],32.6,6.89,35.2,
C[C@H](Nc1ncnc(N)c1C(=O)N(C)C)c1cc2ncc(Cl)n2nc1-c1ccccc1 [Compound 56],1,,9,inhibition at 1 µM [2]: 21%
C[C@@H](Nc1ncnc(N)c1C#N)c1cc2ncc(Cl)n2nc1-c1ccc2scnc2c1 [Compound 75],31.7,,-7.1,inhibition at 1 µM [2]: 1%
C[C@H](Nc1ncnc(N)c1C#N)c1cc2ncc(Cl)n2nc1-c1ccsc1 [Compound 60],,9.00,,pIC50 [1]: 7.32; pIC50 [3]: 7.47
"CNc1ncnc(N[C@@H](C)c2cc3ncc(Cl)n3nc2-c2ccccc2)c1C#N [Compound 33, (S)-4-((1-(3-chloro-6-phenylimidazo[1,2-b]pyridazin-7-yl)ethyl)amino)-6-(methylamino)pyrimidine-5-carbonitrile]",-6.9,6.54,2.2,
"Cc1noc(-c2c(N)ncnc2N[C@@H](C)c2cc3ncc(Cl)n3nc2-c2ccccc2)n1 [Compound 82, (S)—N^4-(1-(3-chloro-6-phenylimidazo[1,2-b]pyridazin-7-yl)ethyl)-5-(3-methyl-1,2,4-oxadiazol-5-yl)pyrimidine-4,6-diamine]",,7.89,55.2,pIC50 [1]: 6.69
"C[C@H](Nc1ncnc(N)c1-c1cccc(F)c1)c1cc2ncc(Cl)n2nc1-c1ccccc1 [Compound 37, (S)—N^4-(1-(3-chloro-6-phenylimidazo[1,2-b]pyridazin-7-yl)ethyl)-5-(3-fluorophenyl)pyrimidine-4,6-diamine]",27.5,6.54,-0.4,
"C[C@H](Nc1ncnc(N)c1C#N)c1cc2ncc(Cl)n2nc1-c1cccc(C(C)(C)O)c1 (single isomer, unassigned) [Compound 79, (chiral)-4-amino-6-((1-(3-chloro-6-(3-(2-hydroxypropan-2-yl)phenyl)imidazo[1,2-b]pyridazin-7-yl)ethyl)amino)pyrimidine-5-carbonitrile]",,,,PI3K-γ IH % (inhibition rate) ([1]; at 1 μM): 56.2%; PI3K-β IH % (inhibition rate) [3]: 43.8%
"CC[C@@H](Nc1ncnc(N)c1C#N)c1cc2ncc(Cl)n2nc1-c1ccccc1 [Compound 5, (R)-4-amino-6-((1-(3-chloro-6-phenylimidazo[1,2-b]pyridazin-7-yl)propyl)amino)pyrimidine-5-carbonitrile]",4.1,,-10.7,inhibition at 1 µM [2]: 47.3%
C[C@H](Nc1ncnc(N)c1-c1cnn(C)c1)c1cc2ncc(Cl)n2nc1-c1ccccc1 [Compound 57],30.3,7.21,6.3,
C[C@H](Nc1ncnc(N)c1C#N)c1cc2ncc(Cl)n2nc1-c1cnn(C)c1 [Compound 72],,8.40,,pIC50 [1]: 6.29; pIC50 [3]: 7.05
CCC(Nc1ncnc(N)c1C#N)c1cc2ncc(Cl)n2nc1-c1ccccn1 (stereo not drawn) [Compound 28],18.8,,11.1,inhibition at 1 µM [2]: 39.8%
C[C@H](Nc1nc(N)ncc1C#N)c1cc2ncc(Cl)n2nc1-c1ccccc1 [Compound 34],-19.3,,3.7,inhibition at 1 µM [2]: 8.3%
C[C@H](Nc1ncnc(N)c1C#N)c1cc2ncc(Cl)n2nc1-c1ccccc1F [Compound 12],,8.70,,pIC50 [1]: 6.26; pIC50 [3]: 7.10
"CC(Nc1ncnc2[nH]cnc12)c1cc2ncc(Cl)n2nc1-c1ccccc1 (single isomer, unassigned) [Compound 11]",,8.52,55.7,pIC50 [1]: 7.03
COc1cc(-c2c(N)ncnc2N[C@@H](C)c2cc3ncc(Cl)n3nc2-c2ccccc2)ccn1 [Compound 50],5.5,,-14.1,inhibition at 1 µM [2]: 68.9%
"CC[C@@H](Nc1ncnc(N)c1C#N)c1cc2ncc(Cl)n2nc1-c1cccc(F)c1 [Compound 43, (R)-4-amino-6-((1-(3-chloro-6-(3-fluorophenyl)imidazo[1,2-b]pyridazin-7-yl)propyl)amino)pyrimidine-5-carbonitrile]",27.2,6.88,23.6,

Structure (SMILES),inhibition at 1 µM ([1]; at 1 μM) [%],pIC50 [2],inhibition at 1 µM [3] [%],other results
CCC(Nc1ncnc2[nH]cnc12)c1cc2ncc(Cl)n2nc1-c1ccccc1 (stereo not drawn) [Compound 14],22.5,,,inhibition at 1 µM [2]: 51%; PI3K-β IH % (inhibition rate) [3]: 3.2%
C[C@H](Nc1ncnc(N)c1C#N)c1cc2ncc(Cl)n2nc1-c1ccc2c(c1)OCCO2 [Compound 70],,,37.4,
"C[C@H](Nc1nc[n+]([O-])c(N)c1C#N)c1cc2ncc(Cl)n2nc1-c1ccccc1 [Compound 51, (S)-6-amino-4-((1-(3-chloro-6-phenylimidazo[1,2-b]pyridazin-7-yl)ethyl)amino)-5-cyanopyrimidine 1-oxide]",,,-15.5,inhibition at 1 µM [1]: 36.7%
CC[C@H](Nc1ncnc2[nH]cnc12)c1cc2ncc(Cl)n2nc1-c1cccc(F)c1 [Compound 47],55.2,7.74,32.2,
C[C@H](Nc1ncnc(N)c1C#N)c1cc2ncc(Cl)n2nc1-c1ccncc1 [Compound 73],62.8,7.09,60.8,
"C[C@@H](Nc1ncnc(N)c1C#N)c1cc2ncc(Cl)n2nc1-c1ccccn1 [Compound 7, (R)-4-amino-6-((1-(3-chloro-6-(pyridin-2-yl)imidazo[1,2-b]pyridazin-7-yl)ethyl)amino)pyrimidine-5-carbonitrile]",-2.3,,-2.7,inhibition at 1 µM [2]: 12.5%
Cc1cn2nc(-c3ccccc3)c([C@H](C)Nc3ncnc(N)c3C#N)cc2n1 [Compound 58],20.2,6.86,20.5,
C[C@H](Nc1ncnc(N)c1C#N)c1cc2ncc(Cl)n2nc1-c1ccc(F)c(F)c1 [Compound 63],,8.22,48.1,pIC50 [1]: 6.98
"CCC(Nc1ncnc2[nH]cnc12)c1cc2ncc(Cl)n2nc1-c1ccccc1F (single isomer, unassigned) [Compound 26]",8,,,PI3K-β IH % (inhibition rate) [3]: −7.5%
"CC(Nc1ncnc(N)c1C#N)c1cc2nccn2nc1-c1ccccc1 (stereo not drawn) [Compound 1, 4-amino-6-((1-(6-phenylimidazo[1,2-b]pyridazin-7-yl)ethyl)amino)pyrimidine-5-carbonitrile]",,7.55,28.1,inhibition at 1 µM [1]: 16.1%
C[C@H](Nc1ncnc(N)c1C#N)c1cc2ncc(Cl)n2nc1-c1ccc2ccn(C)c2c1 [Compound 76],-14.3,,54.9,inhibition at 1 µM [2]: 48.9%
"C[C@H](Nc1nc(O)nc(N)c1C#N)c1cc2ncc(Cl)n2nc1-c1ccccc1 [Compound 55, (S)-4-amino-6-((1-(3-chloro-6-phenylimidazo[1,2-b]pyridazin-7-yl)ethyl)amino)-2-hydroxypyrimidine-5-carbonitrile]",-4.7,,8.5,inhibition at 1 µM [2]: 60.3%
C[C@H](Nc1ncnc(N)c1-c1ccc(O)c(F)c1)c1cc2ncc(Cl)n2nc1-c1ccccc1 [Compound 38],54.3,7.18,-2.2,
CC[C@@H](Nc1ncnc2[nH]cnc12)c1cc2ncc(Cl)n2nc1-c1cccc(F)c1 [Compound 44],36,6.55,18.8,
C[C@H](Nc1ncnc(N)c1C#N)c1cc2ncc(Cl)n2nc1-c1cccc(O)c1 [Compound 54],,8.70,,pIC50 [1]: 6.65; pIC50 [3]: 8.05
"CC(Nc1ncnc2[nH]cc(C#N)c12)c1cc2ncc(Cl)n2nc1-c1ccccc1 (single isomer, unassigned) [Compound 9]",,8.70,,pIC50 [1]: 7.34; pIC50 [3]: 6.80
COc1ccc(-c2c(N)ncnc2N[C@@H](C)c2cc3ncc(Cl)n3nc2-c2ccccc2)cn1 [Compound 39],28.1,7.14,-4.4,
C[C@H](Nc1ncnc(N)c1C#N)c1cc2ncc(Cl)n2nc1-c1ccc(O)cc1 [Compound 49],,9.00,,pIC50 [1]: 6.84; pIC50 [3]: 9.00
C[C@H](Nc1ncnc(N)c1C#N)c1cc2ncc(F)n2nc1-c1ccccc1 [Compound 78],,,50.1,
"Cc1nnc(-c2c(N)ncnc2N[C@@H](C)c2cc3ncc(Cl)n3nc2-c2ccccc2)o1 [Compound 81, (S)—N^4-(1-(3-chloro-6-phenylimidazo[1,2-b]pyridazin-7-yl)ethyl)-5-(5-methyl-1,3,4-oxadiazol-2-yl)pyrimidine-4,6-diamine]",,8.70,,pIC50 [1]: 7.01
